Experimental data as given in PubChem BioAssay AID1259407 (Chemical Carcinogenesis Research Information System (CCRIS), 2018).
Calls of active or inactive are those of the source. No rule for the calls is given here.

Test system: CCRIS mutagenicity, Ames/micronucleus/aberration tests
Assay: CCRIS mutagenicity studies
[1] = Test System: AMES SALMONELLA TYPHIMURIUM, Strain/Indicator: TA98, Metabolic Activation: NONE, Method: PREINCUBATION
[2] = Test System: AMES SALMONELLA TYPHIMURIUM, Strain/Indicator: TA100, Metabolic Activation: NONE, Method: PREINCUBATION
[3] = Test System: AMES SALMONELLA TYPHIMURIUM, Strain/Indicator: TA1535, Metabolic Activation: NONE, Method: PREINCUBATION
[4] = Test System: AMES SALMONELLA TYPHIMURIUM, Strain/Indicator: TA1537, Metabolic Activation: NONE, Method: PREINCUBATION
[5] = Test System: AMES SALMONELLA TYPHIMURIUM, Strain/Indicator: TA98, Metabolic Activation: NONE, Method: STANDARD PLATE
[6] = Test System: AMES SALMONELLA TYPHIMURIUM, Strain/Indicator: TA100, Metabolic Activation: NONE, Method: STANDARD PLATE

**Q.** How did the mutagenic call [1] turn out when `Cc1nc(N)nc(N)n1` was run?
**A.** The mutagenic call was “inactive; negative”.

**Q.** What about the mutagenic call (Test System: AMES SALMONELLA TYPHIMURIUM, Strain/Indicator: TA98, Metabolic Activation: RAT LIVER S-9, PHENOBARBITAL AND BETA-NAPHTHOFLAVONE, Method: PREINCUBATION) of the same molecule?
**A.** The mutagenic call was “inactive; negative”.

**Q.** What about the mutagenic call [2] of the same molecule?
**A.** Its mutagenic call is “inactive; negative”.

**Q.** What about the mutagenic call (Test System: AMES SALMONELLA TYPHIMURIUM, Strain/Indicator: TA100, Metabolic Activation: RAT LIVER S-9, PHENOBARBITAL AND BETA-NAPHTHOFLAVONE, Method: PREINCUBATION) of the same molecule?
**A.** Its mutagenic call is “inactive; negative”.

**Q.** What about the mutagenic call [3] of the same molecule?
**A.** The mutagenic call was “inactive; negative”.

**Q.** What about the mutagenic call (Test System: AMES SALMONELLA TYPHIMURIUM, Strain/Indicator: TA1535, Metabolic Activation: RAT LIVER S-9, PHENOBARBITAL AND BETA-NAPHTHOFLAVONE, Method: PREINCUBATION) of the same molecule?
**A.** Its mutagenic call is “inactive; negative”.

**Q.** What about the mutagenic call [4] of the same molecule?
**A.** The mutagenic call was “inactive; negative”.

**Q.** And the mutagenic call (Test System: AMES SALMONELLA TYPHIMURIUM, Strain/Indicator: TA1537, Metabolic Activation: RAT LIVER S-9, PHENOBARBITAL AND BETA-NAPHTHOFLAVONE, Method: PREINCUBATION)?
**A.** Its mutagenic call is “inactive; negative”.

**Q.** What about the mutagenic call (Test System: AMES SALMONELLA TYPHIMURIUM, Strain/Indicator: TA1538, Metabolic Activation: NONE, Method: PREINCUBATION) of the same molecule?
**A.** The mutagenic call was “inactive; negative”.

**Q.** What about the mutagenic call (Test System: AMES SALMONELLA TYPHIMURIUM, Strain/Indicator: TA1538, Metabolic Activation: RAT LIVER S-9, PHENOBARBITAL AND BETA-NAPHTHOFLAVONE, Method: PREINCUBATION) of the same molecule?
**A.** Its mutagenic call is “inactive; negative”.

**Q.** And the mutagenic call (Test System: E.COLI, Strain/Indicator: WP2UVRA, Metabolic Activation: NONE, Method: PREINCUBATION)?
**A.** Its mutagenic call is “inactive; negative”.

**Q.** What about the mutagenic call (Test System: E.COLI, Strain/Indicator: WP2UVRA, Metabolic Activation: RAT LIVER S-9, PHENOBARBITAL AND BETA-NAPHTHOFLAVONE, Method: PREINCUBATION) of the same molecule?
**A.** The mutagenic call was “inactive; negative”.

**Q.** `CN(N=O)C(=O)Nc1ccc(Cl)cc1` was tested. Which mutagenic call (End Point: IN VITRO CHROMOSOMAL ABERRATIONS, Test System: CHINESE HAMSTER V79-E CELLS, Metabolic Activation: NONE) did it give?
**A.** The mutagenic call was “active; weakly positive”.

**Q.** Which results are given for `COc1ccc(C(=O)/C(Br)=C\C(=O)O)cc1`?
**A.** mutagenic call (End Point: IN VITRO CHROMOSOMAL ABERRATIONS, Test System: CHO CELLS, Metabolic Activation: NONE): active; positive; mutagenic call (End Point: IN VITRO CHROMOSOMAL ABERRATIONS, Test System: CHO CELLS, Metabolic Activation: RAT, LIVER, S-9, AROCLOR 1254): active; positive; mutagenic call (Test System: AMES SALMONELLA TYPHIMURIUM, Strain/Indicator: TA97, Metabolic Activation: HAMSTER, LIVER, S-9, AROCLOR 1254 (10%), Method: PREINCUBATION): active; positive; mutagenic call (Test System: AMES SALMONELLA TYPHIMURIUM, Strain/Indicator: TA97, Metabolic Activation: NONE, Method: PREINCUBATION): active; positive; mutagenic call (Test System: AMES SALMONELLA TYPHIMURIUM, Strain/Indicator: TA97, Metabolic Activation: RAT, LIVER, S-9, AROCLOR 1254 (10%), Method: PREINCUBATION): active; positive; mutagenic call (Test System: AMES SALMONELLA TYPHIMURIUM, Strain/Indicator: TA98, Metabolic Activation: HAMSTER, LIVER, S-9, AROCLOR 1254 (10%), Method: PREINCUBATION): active; positive; mutagenic call [1]: active; positive; mutagenic call (Test System: AMES SALMONELLA TYPHIMURIUM, Strain/Indicator: TA98, Metabolic Activation: RAT, LIVER, S-9, AROCLOR 1254 (10%), Method: PREINCUBATION): active; positive; mutagenic call (Test System: AMES SALMONELLA TYPHIMURIUM, Strain/Indicator: TA100, Metabolic Activation: HAMSTER, LIVER, S-9, AROCLOR 1254 (10%), Method: PREINCUBATION): active; positive; mutagenic call [2]: active; positive; mutagenic call (Test System: AMES SALMONELLA TYPHIMURIUM, Strain/Indicator: TA100, Metabolic Activation: RAT, LIVER, S-9, AROCLOR 1254 (10%), Method: PREINCUBATION): active; positive; mutagenic call (Test System: AMES SALMONELLA TYPHIMURIUM, Strain/Indicator: TA1535, Metabolic Activation: HAMSTER, LIVER, S-9, AROCLOR 1254 (10%), Method: PREINCUBATION): active; positive; mutagenic call [3]: inactive; negative; mutagenic call (Test System: AMES SALMONELLA TYPHIMURIUM, Strain/Indicator: TA1535, Metabolic Activation: RAT, LIVER, S-9, AROCLOR 1254 (10%), Method: PREINCUBATION): active; positive; mutagenic call (Test System: MOUSE LYMPHOMA, Strain/Indicator: L5178Y (TK+/TK-), Metabolic Activation: NONE, Method: SUSPENSION/PLATE): active; positive; mutagenic call (Test System: UDS RODENT HEPATOCYTES, Strain/Indicator: THY INCORP (NON-S-PHASE), Metabolic Activation: 3-METHYLCHOLANTHRENE, Method: AUTORADIOGRAPHY): active; positive; mutagenic call (Test System: UDS RODENT HEPATOCYTES, Strain/Indicator: THY INCORP (NON-S-PHASE), Metabolic Activation: AROCLOR, Method: AUTORADIOGRAPHY): active; positive; mutagenic call (Test System: UDS RODENT HEPATOCYTES, Strain/Indicator: THY INCORP (NON-S-PHASE), Metabolic Activation: NONE, Method: AUTORADIOGRAPHY): inactive; negative

**Q.** What does the source list for `COc1ccc(NC(=O)c2csc([N+](=O)[O-])c2)cc1`?
**A.** mutagenic call [5]: active; positive; mutagenic call [6]: active; positive

**Q.** Which results are given for `CCn1c2ccccc2c2cc(N)ccc21`?
**A.** mutagenic call (Test System: AMES SALMONELLA TYPHIMURIUM, Strain/Indicator: TA98, Metabolic Activation: HAMSTER, LIVER, S-9, AROCLOR 1254, Method: PREINCUBATION): active; positive; mutagenic call [1]: inactive; negative; mutagenic call (Test System: AMES SALMONELLA TYPHIMURIUM, Strain/Indicator: TA98, Metabolic Activation: RAT, LIVER, S-9, AROCLOR 1254, Method: PREINCUBATION): active; positive; mutagenic call (Test System: AMES SALMONELLA TYPHIMURIUM, Strain/Indicator: TA100, Metabolic Activation: HAMSTER, LIVER, S-9, AROCLOR 1254, Method: PREINCUBATION): active; positive; mutagenic call [2]: inactive; negative; mutagenic call (Test System: AMES SALMONELLA TYPHIMURIUM, Strain/Indicator: TA100, Metabolic Activation: RAT, LIVER, S-9, AROCLOR 1254, Method: PREINCUBATION): active; positive; mutagenic call (Test System: AMES SALMONELLA TYPHIMURIUM, Strain/Indicator: TA1535, Metabolic Activation: HAMSTER, LIVER, S-9, AROCLOR 1254, Method: PREINCUBATION): inactive; negative; mutagenic call [3]: inactive; negative; mutagenic call (Test System: AMES SALMONELLA TYPHIMURIUM, Strain/Indicator: TA1535, Metabolic Activation: RAT, LIVER, S-9, AROCLOR 1254, Method: PREINCUBATION): inactive; negative; mutagenic call (Test System: AMES SALMONELLA TYPHIMURIUM, Strain/Indicator: TA1537, Metabolic Activation: HAMSTER, LIVER, S-9, AROCLOR 1254, Method: PREINCUBATION): active; positive; mutagenic call [4]: inactive; negative; mutagenic call (Test System: AMES SALMONELLA TYPHIMURIUM, Strain/Indicator: TA1537, Metabolic Activation: RAT, LIVER, S-9, AROCLOR 1254, Method: PREINCUBATION): active; positive

**Q.** What does the source list for `C[n+]1c2n(c(=O)c3ccccc31)CCc1c-2[nH]c2ccccc12`?
**A.** mutagenic call [5]: inactive; negative; mutagenic call (Test System: AMES SALMONELLA TYPHIMURIUM, Strain/Indicator: TA98, Metabolic Activation: RAT LIVER S-9, AROCLOR 1254 (10%), Method: STANDARD PLATE): inactive; negative; mutagenic call [6]: inactive; negative; mutagenic call (Test System: AMES SALMONELLA TYPHIMURIUM, Strain/Indicator: TA100, Metabolic Activation: RAT LIVER S-9, AROCLOR 1254 (10%), Method: STANDARD PLATE): inactive; negative; mutagenic call (Test System: AMES SALMONELLA TYPHIMURIUM, Strain/Indicator: TA1535, Metabolic Activation: NONE, Method: STANDARD PLATE): inactive; negative; mutagenic call (Test System: AMES SALMONELLA TYPHIMURIUM, Strain/Indicator: TA1535, Metabolic Activation: RAT LIVER S-9, AROCLOR 1254 (10%), Method: STANDARD PLATE): inactive; negative; mutagenic call (Test System: AMES SALMONELLA TYPHIMURIUM, Strain/Indicator: TA1537, Metabolic Activation: NONE, Method: STANDARD PLATE): inactive; negative; mutagenic call (Test System: AMES SALMONELLA TYPHIMURIUM, Strain/Indicator: TA1537, Metabolic Activation: RAT LIVER S-9, AROCLOR 1254 (10%), Method: STANDARD PLATE): inactive; negative
